Test [1] concerns the target T1, MAGL (Homo sapiens, UniProt Q99685).
T1 sequence (Q99685 1-303): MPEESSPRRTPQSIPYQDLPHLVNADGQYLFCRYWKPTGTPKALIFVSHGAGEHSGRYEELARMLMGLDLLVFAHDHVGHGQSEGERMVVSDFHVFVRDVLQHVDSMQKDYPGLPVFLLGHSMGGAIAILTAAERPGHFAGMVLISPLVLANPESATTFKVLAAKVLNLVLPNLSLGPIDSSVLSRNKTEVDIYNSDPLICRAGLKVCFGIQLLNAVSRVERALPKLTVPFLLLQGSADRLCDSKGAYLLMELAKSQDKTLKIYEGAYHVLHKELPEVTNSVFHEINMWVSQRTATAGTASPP
Briefly: In vitro competitive activity-based protein profiling, MAGL, human. The conditions noted are these: read-out: MAGL % inh. 1 μM (human).
Protocol: Biological Evaluation In Vitro Competitive Activity-Based Protein Profiling.
Proteomes (mouse brain membrane fraction for mouse assays; human prefrontal cortex membrane fractions for human assays) (50 mL, 1.0 mg/mL total protein concentration) were preincubated with varying concentrations of inhibitors at 37° C. After 30 min, FP-Rh (1.0 mL, 50 mM in DMSO) was added and the mixture was incubated for another 30 min at 37° C. Reactions were quenched with SDS loading buffer (15 μL—4λ) and run on SDS-PAGE.

In test [2] the target is T2, MAGL (Mus musculus, UniProt O35678).
T2 sequence (O35678 1-303): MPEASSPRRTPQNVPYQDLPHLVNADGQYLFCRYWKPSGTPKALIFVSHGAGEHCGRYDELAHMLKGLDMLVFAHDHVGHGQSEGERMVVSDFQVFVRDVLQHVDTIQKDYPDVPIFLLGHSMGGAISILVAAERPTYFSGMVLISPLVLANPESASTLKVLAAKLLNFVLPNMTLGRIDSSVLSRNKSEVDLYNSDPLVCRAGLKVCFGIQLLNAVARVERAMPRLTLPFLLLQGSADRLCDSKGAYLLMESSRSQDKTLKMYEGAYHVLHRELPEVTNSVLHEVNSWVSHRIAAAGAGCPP
In words: In vitro competitive activity-based protein profiling, MAGL, mouse. The conditions noted are these: read-out: MAGL % inh. 1 μM (mouse).

Test [3] concerns the target T3, FAAH (Homo sapiens, UniProt O00519).
T3 sequence (O00519 1-579): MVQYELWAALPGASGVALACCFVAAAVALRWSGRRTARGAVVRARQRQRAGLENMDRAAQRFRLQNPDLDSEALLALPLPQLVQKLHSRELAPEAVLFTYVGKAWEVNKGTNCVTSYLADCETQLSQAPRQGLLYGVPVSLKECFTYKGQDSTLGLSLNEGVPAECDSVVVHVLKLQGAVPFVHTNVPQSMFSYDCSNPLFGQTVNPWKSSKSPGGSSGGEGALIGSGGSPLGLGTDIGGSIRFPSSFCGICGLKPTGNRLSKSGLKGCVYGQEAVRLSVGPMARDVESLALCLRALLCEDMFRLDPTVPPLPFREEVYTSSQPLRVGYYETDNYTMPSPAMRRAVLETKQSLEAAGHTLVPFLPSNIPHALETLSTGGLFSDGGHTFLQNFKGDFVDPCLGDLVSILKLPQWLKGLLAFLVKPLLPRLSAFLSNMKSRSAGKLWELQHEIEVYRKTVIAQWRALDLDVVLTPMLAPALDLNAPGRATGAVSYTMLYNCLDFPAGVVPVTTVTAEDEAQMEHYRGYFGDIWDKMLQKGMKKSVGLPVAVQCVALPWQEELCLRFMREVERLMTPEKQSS
Briefly: In vitro competitive activity-based protein profiling, FAAH, human. The conditions noted are these: for inhibition at 1 µM: read-out: FAAH % inh. 1 μM (human).

The target of test [4] is T4, FAAH (Mus musculus, UniProt O08914).
T4 sequence (O08914 1-579): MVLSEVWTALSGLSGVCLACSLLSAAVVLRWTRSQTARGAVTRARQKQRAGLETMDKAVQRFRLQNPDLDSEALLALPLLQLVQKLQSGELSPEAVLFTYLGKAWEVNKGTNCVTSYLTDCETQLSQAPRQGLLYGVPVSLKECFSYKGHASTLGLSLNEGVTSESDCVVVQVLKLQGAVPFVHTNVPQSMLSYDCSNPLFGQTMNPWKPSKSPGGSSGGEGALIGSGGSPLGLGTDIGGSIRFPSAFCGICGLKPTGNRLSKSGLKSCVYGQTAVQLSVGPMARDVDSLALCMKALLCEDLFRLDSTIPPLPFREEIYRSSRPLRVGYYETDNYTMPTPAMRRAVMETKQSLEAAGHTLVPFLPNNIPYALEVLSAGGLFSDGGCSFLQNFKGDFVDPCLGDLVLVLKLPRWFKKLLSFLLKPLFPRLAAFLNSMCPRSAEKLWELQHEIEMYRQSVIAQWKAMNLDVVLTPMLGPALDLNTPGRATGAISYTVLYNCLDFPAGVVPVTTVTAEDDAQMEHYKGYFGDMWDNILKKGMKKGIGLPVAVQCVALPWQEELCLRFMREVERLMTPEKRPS
In words: In vitro competitive activity-based protein profiling, FAAH, mouse. The conditions noted are these: read-out: FAAH % inh. 1 μM (mouse).

The target of test [5] is T2, MAGL. Briefly: Mouse brain proteomes from inhibitor treated mice (oral gavage, sacrificed 4 h after administration). On the set-up: mouse brain membrane fraction for mouse assays; from tissue; host or cells: mouse brain (membrane fraction in vitro; brain proteomes of treated C57Bl/6J mice in vivo). The conditions noted are these: 5 mg/kg oral gavage, brain proteome 4 h after administration, read-out: MAGL % inh. 5 mg/kg (mouse). Type of test: in vivo.

The target of test [6] is T4, FAAH. Briefly: Mouse brain proteomes from inhibitor treated mice (oral gavage, sacrificed 4 h after administration), FAAH. Type of test: in vivo. Details: mouse brain membrane fraction for mouse assays; from tissue; host or cells: mouse brain (membrane fraction in vitro; brain proteomes of treated C57Bl/6J mice in vivo). The conditions noted are these: 5 mg/kg oral gavage, brain proteome 4 h after administration, read-out: FAAH % inh. 5 mg/kg (mouse).

Where two headings read alike, the source gives them in different places.

On to `Cc1c(CN2CCN(C(=O)n3ccc(C(=O)O)n3)CC2)[nH]c2ccc(Cl)cc12` [Example 188, 1-(4-((5-chloro-3-methyl-1H-indol-2-yl)methyl)piperazine-1-carbonyl)-1H-pyrazole-3-carboxylic acid], for which the inhibition at 1 µM was > 75% on MAGL [1], > 75% at MAGL [2], 0 to 25% at FAAH [3] and 0 to 25% on FAAH [4]. Moreover, the inhibition at 5 mg/kg at MAGL [5] and on FAAH [6] was 0 to 25% each time.

Regarding `O=C(O)c1ccn(C(=O)N2C[C@H]3C[C@H](OCc4ccc(Oc5ccc(Cl)cc5)cc4)C[C@H]3C2)n1` [Example 55, 1-(trans-5-((4-(4-chlorophenoxy)benzyl)oxy)octa-hydrocyclopenta[c]pyrrole-2-carbonyl)-1H-pyrazole-3-carboxylic acid], the inhibition at 1 µM at MAGL [1], at MAGL [2], at FAAH [3] and at FAAH [4] was > 75% throughout. Moreover, the inhibition at 5 mg/kg on MAGL [5] and at FAAH [6] was 0 to 25% each time.

As for `O=C(O)c1nn(C(=O)N2CCC3(CCCN3Cc3cc4ccc(C(F)(F)F)cc4s3)CC2)cc1Cl` [Example 139, 4-chloro-1-(1-((6-(trifluoromethyl)benzo[b]thiophen-2-yl)methyl)-1,8-diazaspiro[4.5]decane-8-carbonyl)-1H-pyrazole-3-carboxylic acid], the inhibition at 1 µM on MAGL [1], on MAGL [2], on FAAH [3] and at FAAH [4] was > 75% each time. The inhibition at 5 mg/kg on MAGL [5] and on FAAH [6] was 0 to 25% each time.

For the compound `Cc1cc(-c2ccccc2)ccc1CN1CCN(C(=O)n2ccc(C(=O)O)n2)[C@H](C)C1` [Example 245, (R)-1-(2-methyl-4-((3-methyl-[1,1′-biphenyl]-4-yl)methyl)piperazine-1-carbonyl)-1H-pyrazole-3-carboxylic acid], the inhibition at 1 µM on MAGL [1] and on MAGL [2] was > 75% in each case. Moreover, the inhibition at 5 mg/kg on MAGL [5] was in the range of 0 to 25%.

Regarding `C[C@H]1CN(Cc2ccc(C(F)(F)F)cc2N2C3CCC2COC3)CCN1C(=O)n1ccc(C(=O)O)n1` [Example 395, 1-((2S)-4-(2-(3-oxa-8-azabicyclo[3.2.1]octan-8-yl)-4-(trifluoromethyl)benzyl)-2-methylpiperazine-1-carbonyl)-1H-pyrazole-3-carboxylic acid], the inhibition at 1 µM at MAGL [1] and on MAGL [2] was > 75% in each case. Moreover, on MAGL [5] (C57Bl/6J mice), the inhibition at 5 mg/kg lay within 0 to 25%.

Usually IC50 stands for the concentration needed to halve the response being measured. Low values mean greater potency in that assay, high ones weaker potency in that assay. For the compound `O=C(O)c1ccn(C(=O)N2CCN(Cc3ccc(C(F)(F)F)cc3N3CCOCC3)CC2)n1` [Example 3, 1-(4-(2-Morpholino-4-(trifluoromethyl)benzyl)piperazine-1-carbonyl)-1H-pyrazole-3-carboxylic Acid], the inhibition at 1 µM at MAGL [2] is > 75%; on FAAH [4] it was 0 to 25%. This compound also yielded an IC50 at FAAH [3] of 1 to 10 µM. Moreover, the inhibition at 5 mg/kg at MAGL [5] and at FAAH [6] was 0 to 25% each time.

`CC(C)(O)COc1cccc(O[C@H]2C[C@@H]3CN(C(=O)n4ccc(C(=O)O)n4)C[C@@H]3C2)c1Cl` [Example 451, 1-(trans-5-(2-chloro-3-(2-hydroxy-2-methylpropoxy)phenoxy)octahydro-cyclopenta[c]pyrrole-2-carbonyl)-1H-pyrazole-3-carboxylic acid]: the inhibition at 1 µM on MAGL [1] and on MAGL [2] was > 75% in each case. Besides, the inhibition at 5 mg/kg at MAGL [5] (C57Bl/6J mice) is 0 to 25%.

As to `CN(Cc1ccc(C(F)(F)F)cc1N1CCCCC1)C1(C)CCN(C(=O)n2ccc(C(=O)O)n2)CC1` [Example 397, 1-(4-methyl-4-(methyl(2-(piperidin-1-yl)-4-(trifluoromethyl)benzyl)amino)piper-idine-1-carbonyl)-1H-pyrazole-3-carboxylic acid], the inhibition at 1 µM on MAGL [1] and on MAGL [2] was > 75% each time. In addition, on MAGL [5] (C57Bl/6J mice), the inhibition at 5 mg/kg was in the range of 0 to 25%.

On to `O=C(O)c1ccn(C(=O)N2CCN(Cc3cc(Cl)cc(-c4cncnc4)c3)CC2)n1` [Example 269, 1-(4-(3-chloro-5-(pyrimidin-5-yl)benzyl)piperazine-1-carbonyl)-1H-pyrazole-3-carboxylic acid], for which the inhibition at 1 µM on MAGL [1] and on MAGL [2] was > 75% in each case. Moreover, the inhibition at 5 mg/kg at MAGL [5] was in the range of 0 to 25%.

`Cc1cn(C(=O)N2C[C@H]3C[C@H](OCc4cc(F)cc(Cl)c4)C[C@H]3C2)nc1C(=O)O` [Example 252, 1-(trans-5-((3-chloro-5-fluorobenzyl)oxy)octahydrocyclopenta [c]pyrrole-2-carbonyl)-4-methyl-1H-pyrazole-3-carboxylic acid]: the inhibition at 1 µM on MAGL [1] and on MAGL [2] was > 75% throughout. Further, the inhibition at 5 mg/kg at MAGL [5] was 0 to 25%.

With `CN(Cc1ccc(C(F)(F)F)c(N2CCCC2)c1)C1(C)CCN(C(=O)n2ccc(C(=O)O)n2)CC1` [Example 385, 1-(4-methyl-4-(methyl(3-(pyrrolidin-1-yl)-4-(trifluoromethyl)benzyl)amino)piper-idine-1-carbonyl)-1H-pyrazole-3-carboxylic acid], the inhibition at 1 µM on MAGL [1] and on MAGL [2] was > 75% throughout. The inhibition at 5 mg/kg on MAGL [5] is 0 to 25%.

Take `O=C(O)c1ccn(C(=O)N2CCC3(CCN(Cc4cc(Cl)cc(Cl)c4Cl)C3)CC2)n1` [Example 337, 1-(2-(2,3,5-trichlorobenzyl)-2,8-diazaspiro[4.5]decane-8-carbonyl)-1H-pyrazole-3-carboxylic acid]: the inhibition at 1 µM at MAGL [1] and on MAGL [2] was > 75% throughout. In addition, the inhibition at 5 mg/kg at MAGL [5] fell in the range of 0 to 25%.

Consider `O=C(O)c1nn(C(=O)N2CCC3(CCN(Cc4cc(Cl)cc(C(F)(F)F)c4)C3)CC2)cc1Cl` [Example 388, 4-chloro-1-(2-(3-chloro-5-(trifluoromethyl)benzyl)-2,8-diazaspiro[4.5]decane-8-carbonyl)-1H-pyrazole-3-carboxylic acid], for which the inhibition at 1 µM at MAGL [1] and on MAGL [2] was > 75% in each case. In addition, the inhibition at 5 mg/kg on MAGL [5] fell in the range of 0 to 25%.

(Values after patent US10266497B2 (ABIDE THERAPEUTICS, INC., priority 2017, dated 2019).)
